Measured values reported in US20030003519A1, “Compositions and methods for the discovery and selection of biological information” (priority 2000, published 2003).
Where two headings read alike, the source gives them in different places.

Tested on: effect of IL-1β on SEAP reporter gene activity in selected NIH3T3 cells
Assay: IL-1β-induced SEAP reporter gene activity in selected NIH3T3 cell clones
Assay type: cell-based
Settings: IL-1β-stimulated selected NIH3T3 cells, read-out: IC50 value of the inhibition of SEAP activity

Row | SMILES | IC50 [nM] | IC50 (Mus musculus) [nM]
1 | COc1cccc(-c2cc(=O)c3ccccc3o2)c1N [PD98059] | ~1000 | 
2 | N#CC(=C(/N)Sc1ccccc1N)/C(C#N)=C(\N)Sc1ccccc1N [U0126] |  | ~1000
3 | Cc1ccc(-c2cc(C(F)(F)F)nn2-c2ccc(S(N)(=O)=O)cc2)cc1 [celecoxib] |  | ~200
